{"source": "patent US7262177B2", "about": "“Conjugates of glycosylated/galactosylated peptide, bifunctional linker, and nucleotidic monomers/polymers, and related compositions and methods of use” (priority 2000, dated 2007)", "key": {"Hep G2 cells": {"tested_on": "Hep G2 cells", "assay": "Inhibition of Hep G2 cellular proliferation (cell counting), 1-mer conjugates", "format": "cell-based, human", "protocol": "Hep G2 cells were seeded into a 48-well plate in RPMI supplemented with 10% FCS at a density of 5×10^4 cells/well. Cells were then allowed to incubate at 37° C., 95% RH, 5% CO2 for 24 hrs. After this incubation period, the maintainence medium was aspirated and cells were treated with various concentrations of neoglycoconjugate in 200 μl of RPMI supplemented with 10% FCS. Control wells were treated with 200 μl of RPMI+10% FCS alone. At 0, 24, 48, 72 and 96 hrs, six wells for each condition were washed twice with 0.5 ml of DPBS and treated with 0.5 ml of trypsin (0.25%; prepared in HBSS with 1.0 mM EDTA). Cell number for each condition were determined a using a Coulter electronic cell counter. In all cases, the extent of inhibition of proliferation increased as a function of time. […] Therefore, the type of linkage that conjugates the nucleotide analog to YEE(ahGalNAc)3 influences the ability to inhibit proliferation."}, "[1]": {"target": "T1, thymidylate synthase (TS) (Homo sapiens, UniProt P04818)", "T1 construct": "endogenous in cells; host or cells: Hep G2", "T1 sequence (P04818 2-313 limits assumed)": "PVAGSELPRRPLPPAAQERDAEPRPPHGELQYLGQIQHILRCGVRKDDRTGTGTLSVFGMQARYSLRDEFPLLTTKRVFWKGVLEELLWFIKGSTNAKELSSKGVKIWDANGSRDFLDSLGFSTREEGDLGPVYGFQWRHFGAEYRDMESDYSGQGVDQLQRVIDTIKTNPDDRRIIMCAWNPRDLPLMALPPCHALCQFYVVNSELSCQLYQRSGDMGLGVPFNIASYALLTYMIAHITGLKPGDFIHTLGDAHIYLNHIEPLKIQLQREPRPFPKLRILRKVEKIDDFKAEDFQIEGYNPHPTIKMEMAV", "assay": "Thymidylate synthase activity in treated TSU cells", "format": "cell-based", "settings": "TSU carcinoma cells, 1 μM", "protocol": "Thymidylate synthase inhibition results in insufficient thymidylate levels for DNA replication and can lead to intracellular signaling processes that ultimately lead to cell death. The activity of this paramount enzyme was determined based on the methods of Keyomarsi et al. (J. Biol. Chem., 268, 15142-15149 (1993)). Briefly, 10^5 Hep G2 or TSU cells were grown in culture for 48 h and then the medium was made to a concentration of 1 μM with either po 1-mer or unconjugated 5FdU. At regular intervals (24 hrs, 48 hrs, 72 hrs and 96 hrs) after treatment, the medium was removed and replaced with medium containing deoxyuridine/[^3H]-deoxyuridine mixtures. Cells were incubated at 37° C. for 30 min. Cell medium was then removed and precipitated with charcoal. The supernatant was then counted to determine the presence of [^3H]-H2O. The measurable release of [^3H] as [^3H]-H2O from deoxyuridine, 5′-monophosphate (dUMP) substrate reflects thymidylate synthase activity."}, "TS": {"target": "T2, TS (Homo sapiens, UniProt P04818)", "T2 construct": "from tissue; host or cells: subcutaneous Hep G2 xenograft tumour from CD-1 nude mice", "T2 sequence (P04818 2-313 limits assumed)": "as above", "assay": "TS activity in tumor of xenografted mice", "format": "in vivo, CD-1 nude mice", "settings": "treated", "protocol": "Initial effects of po 1-mer treatment were noticed after about 5 weeks. Overall, however, tumors continued to grow after this point, but at a slower rate than the control. For instance, at 8 weeks post po 1-mer treatment, the average tumor weight of xenografted human hepatomas in nude CD-1 mice was about 7 g, whereas the average tumor weight of the saline control was about 15 g. Histological analysis was performed after 8 weeks in order to compare the tumors of the control cohort with the tumors of po 1-mer-treated nude mice. […] This weight loss may then be due to the tumor burden, rather than the therapeutic treatment, and was continued through week 8.\nAfter the treatment was completed, tumors were analyzed both histologically and for TS activity. […] Therefore, it can be deduced that increasing the dose of po 1-mer increased the efficacy without increasing systemic toxicity."}}}
{"smiles": "CC(=O)N[C@H]1[C@H](OCCCCCCNC(=O)CC[C@H](NC(=O)CC[C@H](NC(=O)[C@H](Cc2ccc(O)cc2)NC(=O)C2CCC(CN3C(=O)CC(SCCCCCCOP(=O)(O)OC[C@H]4O[C@@H](n5cc(F)c(=O)[nH]c5=O)C[C@@H]4O)C3=O)CC2)C(=O)NCCCCCCO[C@@H]2O[C@H](CO)[C@H](O)[C@H](O)[C@H]2NC(C)=O)C(=O)NCCCCCCO[C@@H]2O[C@H](CO)[C@H](O)[C@H](O)[C@H]2NC(C)=O)O[C@H](CO)[C@H](O)[C@@H]1O", "note": "(some centres unmarked) [po 1-mer, YEE(ahGalNAc)3-SMCC-poFU]", "values": [{"measurement": "inhibition of proliferation", "setting": "Hep G2 cells; 1 μM, compared to untreated control, listed as po-linked conjugate", "result": 64, "unit": "%"}, {"measurement": "more active than the ps-linked conjugate", "setting": "Hep G2 cells; in vitro proliferation of Hep G2 cells", "result": "approximately 30%"}, {"measurement": "inhibition of TS activity", "setting": "[1]", "result": "no inhibitory effect"}, {"measurement": "TS activity, COUNTS/MG PROTEIN", "setting": "TS; weekly 10 mg/kg", "result": 17641, "unit": "counts/mg protein"}, {"measurement": "TS activity, COUNTS/MG PROTEIN", "setting": "TS; weekly 15 mg/kg", "result": 8591, "unit": "counts/mg protein"}]}
